How the values were obtained:
[1] = Stability assessment: storage of the solid sample, then HPLC analysis; format: physicochemical; conditions: in % (unit assumed)
[2] = as above; format: physicochemical; conditions: in % (unit assumed); for Stability result (HPLC analysis), Open ACC: open state, accelerated condition (40° C., 75% RH); for Stability result (HPLC analysis), Closed STR: sealed state, harsh condition, oven at 80° C.
Protocol: About 10-30 mg of the sample was stored for 4 weeks in an open state under the accelerated condition (40° C., 75% RH) or in a sealed state under the harsh condition in an oven at 80° C.

Stability result (HPLC analysis), Closed RT ([1]; Week 2, stored at room temperature): 97.86
Stability result (HPLC analysis), Closed RT ([1]; Week 4, stored at room temperature): 97.27
Stability result (HPLC analysis), Open ACC ([2]; Day 3): 97.95
Stability result (HPLC analysis), Closed STR ([2]; Day 3): 97.94
Stability result (HPLC analysis) ([2]; Initial): 97.94
Stability result (HPLC analysis), Open ACC ([2]; Week 1): 98.04
Stability result (HPLC analysis), Closed STR ([2]; Week 1): 97.83
Stability result (HPLC analysis), Open ACC ([2]; Week 2): 98.04
Stability result (HPLC analysis), Closed STR ([2]; Week 2): 97.88
Stability result (HPLC analysis), Open ACC ([2]; Week 4): 97.68
Stability result (HPLC analysis), Closed STR ([2]; Week 4): 97.10
Compound: CC(C)C(=O)N([C@H]1C[C@@H](C(=O)N2CCOCC2)N(C(=O)[C@@H]2CN(C(C)(C)C)C[C@H]2c2ccc(Cl)cc2)C1)[C@H]1CC[C@@H](C)CC1.Cl [Example 1, N-((3S,5S)-1-((3S,4R)-1-(tert-butyl)-4-(4-chlorophenyl)pyrrolidine-3-carbonyl)-5-(morpholine-4-carbonyl)pyrrolidin-3-yl)-N-((1s,4R)-4-methylcyclohexyl)isobutyramide hydrochloride]

— patent publication US20250179016A1, “AMORPHOUS MELANOCORTIN-4 RECEPTOR AGONIST” (LG CHEM, LTD., priority 2020, published 2025)
